# From article PMC10495264 (Nature Cell Biology, 2023)
# Values joined by “and” are separate entries in the source; they are usually repeats but may differ in a detail not shown here. Equal values may be shown once.
# Columns and labels:
# AMPK = AMPK and ACC1 phosphorylation immunoblot; format: cell-based, human; conditions: relative to DMSO
# Protocol: (§1) For standard SDS–PAGE and immunoblotting experiments, cells from a well of a 12-well plate were lysed in 250 μl of ice-cold Triton lysis buffer (50 mM Tris pH 7.5, 1% Triton X-100, 150 mM NaCl, 50 mM NaF, 2 mM Na-vanadate and 0.011 g ml^−1 β-glycerophosphate) supplemented with 1×PhosSTOP phosphatase inhibitors (cat. no. 4906837001, Roche) and 1×cOmplete protease inhibitors (cat. no. 11836153001, Roche) for 10 min on ice. The samples were clarified by centrifugation (20,000g, 15 min, 4 °C) and the supernatants were boiled in 1×SDS sample buffer (5×SDS sample buffer: 350 mM Tris–HCl pH 6.8, 30% glycerol, 600 mM DTT, 12.8% SDS and 0.12% bromophenol blue). The band intensities were quantified using the ImageJ software.
# (§2) Data in graphs are shown as the mean ± s.e.m. *P < 0.05, **P < 0.005. Source numerical data and unprocessed blots are provided. Source data
# mTORC1 [1] = assay: mTORC1 activity in HEK293FT cells (WT and knockout lines), phosphorylation of S6K, 4E-BP1, Grb10, TFEB by immunoblot; format: cell-based, human
# Protocol: Data represent the median fluorescence intensity of OPP Alexa Fluor 488; n = 6 biological replicates from two independent experiments. b,c,e,g,i,k,l, Data are the mean ± s.e.m. *P < 0.05, **P < 0.005, ***P < 0.0005. […] Source numerical data and unprocessed blots are provided. Source data
# (§3) Amino-acid-starvation experiments were carried out as described before[42],[43]. […] For the lipid depletion experiments, cells were cultured in medium containing 10% charcoal-stripped FBS (A3382101, Thermo Fisher Scientific), instead of full FBS, for 24 h before treatments with FASN inhibitors were performed. For FA supplementation, each FA was first conjugated to 10% FA-free BSA (fraction V; cat. no. 10735086001, Roche) for 1 h at 50 °C in a 50:50 volumetric ratio. The BSA-conjugated C16:0, C16:1, C18:1 and C18:2 FAs (100 μM) were then added to the media both 16 h previous to and at the start of the treatment with FASN inhibitors.
# as §1
# [2] = test system: mTOR lysosomal localization; assay: Co-localization of mTOR with LAMP2, confocal microscopy; format: cell-based, human; conditions: for mTOR/LAMP2 colocalization (Manders' coefficient), Mean: mean of pooled individual cells (ED Fig. 8d), DMSO mean 0.383214
# mTORC1 [3] = assay: mTORC1 activity in HEK293T cells (WT, AMPKα1/2 KO, DEPDC5 and RagA/B triple KO), p-S6K^T389/S6K immunoblot; format: cell-based, human
# Protocol: Source numerical data and unprocessed blots are provided. Source data
# as §1
# Data in graphs are shown as the mean ± s.e.m. *P < 0.05, **P < 0.005, ***P < 0.0005. Source numerical data and unprocessed blots are provided. Source data
# mTORC1 [4] = assay: mTORC1 activity in mouse embryonic fibroblasts (MEFs), p-S6K^T389/S6K immunoblot; format: cell-based; conditions: for p-S6K(T389)/S6K, Mean: ED Fig. 4e, relative to DMSO
# mTORC1 [5] = assay: mTORC1 activity in U2OS cells, immunoblot; format: cell-based, human; conditions: Fasnall 25 μM 30 min; cerulenin 50 μM 2 or 4 h
# mTORC2 = mTORC2 activity in HEK293FT cells, p-AKT^S473/AKT immunoblot; format: cell-based, human
# Protocol: Phosphorylation of Ypk1 was used as the TORC2 readout. Phosphorylation of Snf1 was used as the AMPK activation readout. Total Snf1 was detected with an antibody to a histidine (His) stretch in Snf1. […] Source numerical data and unprocessed blots are provided. Source data
# as §3, §1
# mTORC1 [6] = molecular target: T1, mTORC1 (Homo sapiens, UniProt P42345); assay: mTORC1 complex stability/composition, mTOR co-immunoprecipitation of Raptor and mLST8; conditions: cells treated with cerulenin (4 h)
# T1 construct: endogenous mTORC1 complexes were purified from HEK293FT cells; endogenous in cells; host or cells: HEK293FT (immunoprecipitation of endogenous mTOR); the 4E-BP1 substrate was made in E. coli BL21 RP
# Protocol: For the mammalian endogenous protein co-immunoprecipitation experiments, cells of a near-confluent 10-cm dish were lysed in CHAPS IP buffer (50 mM Tris pH 7.5, 0.3% CHAPS detergent, 150 mM NaCl, 50 mM NaF, 2 mM Na-vanadate and 0.011 g ml^−1 β-glycerophosphate) supplemented with 1×PhosSTOP phosphatase inhibitors and 1×EDTA-free cOmplete protease inhibitors (11873580001, Roche) for 10 min on ice. The samples were clarified by centrifugation (20,000g, 15 min, 4 °C) and the supernatants were subjected to immunoprecipitation by the addition of 3 μl of each antibody, incubation at 4 °C with rotation for 3 h, followed by incubation (4 °C with rotation) with 30 μl of a pre-washed Protein A agarose bead slurry (cat. no. 11134515001, Roche) for an additional hour. The beads were then washed four times with CHAPS IP wash buffer (50 mM Tris pH 7.5, 0.3% CHAPS detergent, 150 mM NaCl and 50 mM NaF) and boiled in 1×SDS loading buffer. A portion of the samples was kept aside as the input before the addition of antibodies. The samples were analysed by SDS–PAGE and the presence of co-immunoprecipitated proteins was detected by immunoblotting with the appropriate specific antibodies.
# To test whether Mal-CoA influences mTORC1 complex stability/composition, 1 mM Mal-CoA lithium salt solution was added to the lysates before the immunoprecipitation of mTOR, as described earlier. […]
# ERK1/2 = ERK1/2 phosphorylation immunoblot; format: cell-based, human; conditions: ED Fig. 5m; relative to DMSO
# Protocol: as §1, §2
# [7] = Fasnall 25 μM 30 min, cerulenin 50 μM 4 h
smiles,measurement,setting,value
C/C=C/C/C=C/CCC(=O)[C@H]1O[C@H]1C(N)=O [cerulenin],"p-AMPK(T172)/AMPK, Mean",AMPK; ED Fig. 5e,0.8121
same,"p-ACC1(S79)/ACC1, Mean",AMPK; ED Fig. 5f,1.111
same,"p-Grb10(S476)/Grb10, Mean","mTORC1 [1]; ED Fig. 3e, relative to DMSO",0.6323
same,"p-TFEB(S211)/TFEB, Mean","mTORC1 [1]; ED Fig. 3f, relative to DMSO",0.6501
same,"p-4E-BP1(T37/46)/4E-BP1, Mean","mTORC1 [1]; ED Fig. 3g, relative to DMSO",0.1632
same,"p-S6K(T389)/S6K, Mean","mTORC1 [1]; ED Fig. 6b, relative to Luc",0.5038
same,mTORC1 activity towards Grb10 and TFEB (cerulenin: also 4E-BP1),mTORC1 [1]; [7],downregulates
same,"mTORC1 activity (phosphorylation of S6K, 4E-BP1, Grb10 and TFEB)","mTORC1 [1]; HEK293FT cells, Fasnall, cerulenin or siFASN",suppressed
same,"p-S6K(T389)/S6K, Mean","mTORC1 [1]; HEK293FT, 50 μM cerulenin 2h, DMSO = 1, n = 8, Fig. 2i",0.7401
same,"p-S6K(T389)/S6K, Mean","mTORC1 [1]; HEK293FT, 50 μM cerulenin 4h, DMSO = 1, n = 8, Fig. 2i",0.4346
same,"p-S6K(T389)/S6K, Mean","mTORC1 [1]; TSC1 KO HEK293FT, cerulenin 50 μM, 4 h, respective DMSO = 1, n = 3, Fig. 5p",0.4527
same,"p-S6K(T389)/S6K, Mean","mTORC1 [1]; WT HEK293FT, cerulenin 50 μM, 4 h, respective DMSO = 1, n = 3, Fig. 5p",0.3623
same,mTOR/LAMP2 colocalization (Manders' coefficient),"[2]; Ceru 2h, Replicate 1, individual cells (ED Fig. 8d)",0.444 and 0.38 and 0.427 and 0.715 and 0.517 and 0.116 and 0.414 and 0.188 and 0.399 and 0.209 and 0.241 and 0.28 and 0.349 and 0.265 and 0.345 and 0.315 and 0.445 and 0.603 and 0.407 and 0.223 and 0.37 and 0.271 and 0.185
same,mTOR/LAMP2 colocalization (Manders' coefficient),"[2]; Ceru 2h, Replicate 3, individual cells (ED Fig. 8d)",0.327 and 0.378 and 0.177 and 0.225 and 0.217 and 0.171 and 0.169 and 0.316 and 0.307 and 0.469 and 0.189 and 0.266 and 0.237 and 0.271 and 0.179 and 0.175 and 0.173 and 0.339
same,"mTOR/LAMP2 colocalization (Manders' coefficient), Mean",[2]; Ceru 2h,0.3276
same,mTOR/LAMP2 colocalization (Manders' coefficient),"[2]; Ceru 4h, Replicate 1, individual cells (ED Fig. 8d)",0.295 and 0.311 and 0.327 and 0.333 and 0.217 and 0.408 and 0.17 and 0.428 and 0.395 and 0.227 and 0.135 and 0.322 and 0.371 and 0.272 and 0.219 and 0.26 and 0.303
same,mTOR/LAMP2 colocalization (Manders' coefficient),"[2]; Ceru 4h, Replicate 3, individual cells (ED Fig. 8d)",0.327 and 0.378 and 0.177 and 0.225 and 0.217 and 0.171 and 0.169 and 0.316 and 0.307 and 0.469 and 0.189 and 0.266 and 0.237 and 0.271 and 0.179 and 0.175 and 0.173 and 0.339
same,"mTOR/LAMP2 colocalization (Manders' coefficient), Mean",[2]; Ceru 4h,0.2619
same,mTOR localization at lysosomes (co-localization with LAMP2),"[2]; HEK293FT, 25 μM Fasnall or 50 μM cerulenin",significant dissociation
same,"p-S6K(T389)/S6K, Mean","mTORC1 [3]; ED Fig. 7c, AMPKa1/2 KO, 2h, relative to AMPKa1/2 KO DMSO",0.7893
same,"p-S6K(T389)/S6K, Mean","mTORC1 [3]; ED Fig. 7c, AMPKa1/2 KO, 4h, relative to AMPKa1/2 KO DMSO",0.6235
same,"p-S6K(T389)/S6K, Mean","mTORC1 [3]; ED Fig. 7c, WT, 2h, relative to WT DMSO",0.7439
same,"p-S6K(T389)/S6K, Mean","mTORC1 [3]; ED Fig. 7c, WT, 4h, relative to WT DMSO",0.528
same,"p-S6K(T389)/S6K, Mean","mTORC1 [3]; ED Fig. 7h, DEPDC5+RagA/B KO, 2h, relative to DEPDC5+RagA/B KO DMSO",0.6252
same,"p-S6K(T389)/S6K, Mean","mTORC1 [3]; ED Fig. 7h, DEPDC5+RagA/B KO, 4h, relative to DEPDC5+RagA/B KO DMSO",0.4969
same,"p-S6K(T389)/S6K, Mean","mTORC1 [3]; ED Fig. 7h, WT, 2h, relative to WT DMSO",0.7136
same,"p-S6K(T389)/S6K, Mean","mTORC1 [3]; ED Fig. 7h, WT, 4h, relative to WT DMSO",0.5404
same,"p-S6K(T389)/S6K, Mean",mTORC1 [4]; 2h,0.8743
same,"p-S6K(T389)/S6K, Mean",mTORC1 [4]; 4h,0.3448
same,mTORC1 activity in MEFs,"mTORC1 [4]; Fasnall 25 μM 30 min, cerulenin 50 μM 2 or 4 h",downregulates
same,mTORC1 activity in U2OS,mTORC1 [5],downregulates
same,phosphorylation of Akt (mTORC2 substrate),mTORC2; [7],did not significantly alter
same,"p-AKT(S473)/AKT, Mean","mTORC2; cerulenin 50 μM, 4 h, DMSO = 1, n = 3, Fig. 3d",0.8351
same,stability and composition of mTORC1,mTORC1 [6],not affected
same,"p-ERK(T202/Y204)/ERK, Mean",ERK1/2,1.697
